pEC50: −log10 of the molar value. Like-named read-outs stand apart in the source and are kept apart here. Square brackets hold non-standard residues; d marks the D form. Peptide text beside a SMILES is read from it. AEEA = NCCOCCOCC(=O)O

For assay [1], the target named is T1, human GLP-1 R (Homo sapiens, UniProt P43220).
T1 construct: expressed in transfected cells
Briefly: Human GLP-1 receptor efficacy assay (cAMP induction, FlashPlate). It is filed as cell-based. As to conditions: Table 2; read-out: hGLP-1 R EC50. The procedure: On the day of analysis, growth medium was removed and the cells were washed once with 200 μl Tyrode buffer [Tyrode's Salts (9.6 g/l), 10 mM HEPES, pH 7.4]. […] The reaction was stopped by addition of 25 μl 0.5 M HCl and incubated on ice for 60 min.

The target in assay [2] is T2, human CCK-B R (Homo sapiens, UniProt P32239).
T2 construct: expressed in transfected cells
T2 sequence (P32239 1-447): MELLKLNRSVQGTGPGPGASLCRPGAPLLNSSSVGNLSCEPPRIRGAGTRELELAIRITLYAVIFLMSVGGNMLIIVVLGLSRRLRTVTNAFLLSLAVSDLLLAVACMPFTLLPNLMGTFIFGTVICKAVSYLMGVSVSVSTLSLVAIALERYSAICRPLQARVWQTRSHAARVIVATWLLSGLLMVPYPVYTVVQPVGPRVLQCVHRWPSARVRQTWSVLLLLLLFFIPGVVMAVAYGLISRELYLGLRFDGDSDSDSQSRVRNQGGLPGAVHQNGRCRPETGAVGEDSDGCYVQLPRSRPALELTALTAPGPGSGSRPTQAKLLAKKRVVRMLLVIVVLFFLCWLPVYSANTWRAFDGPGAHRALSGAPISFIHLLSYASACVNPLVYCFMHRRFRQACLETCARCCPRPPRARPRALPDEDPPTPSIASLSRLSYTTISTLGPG
Briefly: Human CCK-B receptor efficacy assay (AlphaScreen SureFire p-ERK). The class given is cell-based. As to conditions: read-out: hCCK-B R EC50.
Description: CCK-B Receptor (CCK-B R) Efficacy Assay:
In vitro effects of peptide conjugates of the invention were estimated by measuring p-ERK (using the AlphaScreen™ SureFire p-ERK assay) in HEK293 cells stably expressing the human and mouse CCK-B R (high-affinity Gastrin receptor), respectively. The Gastrin receptor efficacy assays (AlphaScreen™ SureFire p-ERK assay) were performed as follows:
The CCK-B R expressing cells in question were seeded at 20,000 cells/well in 100 μl growth medium [DMEM, 10% FCS, Penicillin (100 IU/ml), Streptomycin (100 μg/ml)] in a 96-well plate coated with poly-D-lysine. The cells were incubated in an incubator (37° C., 5% 002) for two days.
The growth medium was changed to 80 μl of serum-free medium [DMEM, Penicillin (100 IU/ml), Streptomycin (100 μg/ml)] per well, and incubation of the cells was continued for 19 hours in the incubator (37° C., 5% CO2).
After 19 hours, 20 μl of serum-free medium containing one of 5 different concentrations of peptide conjugate was added (performed in triplicate for each concentration), and the cells were incubated for 5 min. at room temperature. • 2. The stimulation medium was discarded by quickly turning the plate upside down, and 60 μl 1× lysis buffer (from the SureFire assay kit) was added per well. • 3. The plate was shaken on a plate-shaker for 5 min and then placed on ice. • 4. SureFire P-ERK assay: 4 μl of each supernatant was transferred to a 384 well proxiplate (Perkin Elmer). • 5. 4 μl of each of the two control lysates (unstimulated and stimulated) were added to the proxiplate in duplicate. • 6. […] 7 μl of the latter reaction buffer+activation buffer+beads per well were added in the proxiplate, the mix being resuspended carefully before addition to the wells. • 7. The plate was incubated for 2 hours in a dark box in a 22° C. incubator. • 8. The plate was analyzed on an Envision™ light-emission plate reader (Perkin-Elmer) using the appropriate reading program (Perkin-Elmer).

T1 sequence (P43220 24-463): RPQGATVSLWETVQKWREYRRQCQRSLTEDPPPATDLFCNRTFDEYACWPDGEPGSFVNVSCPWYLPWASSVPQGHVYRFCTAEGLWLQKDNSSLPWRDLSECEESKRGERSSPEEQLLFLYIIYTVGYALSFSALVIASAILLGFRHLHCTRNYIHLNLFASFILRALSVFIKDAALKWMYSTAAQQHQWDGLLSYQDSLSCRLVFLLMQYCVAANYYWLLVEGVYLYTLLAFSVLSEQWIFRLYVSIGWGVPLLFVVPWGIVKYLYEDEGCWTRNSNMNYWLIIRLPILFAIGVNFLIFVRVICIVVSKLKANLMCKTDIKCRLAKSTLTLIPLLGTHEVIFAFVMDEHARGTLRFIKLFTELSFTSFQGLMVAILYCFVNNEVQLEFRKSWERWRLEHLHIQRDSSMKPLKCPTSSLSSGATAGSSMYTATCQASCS

“H-HGEGTFTSELSKYLEEEAVRLFIEFLKWLDF-NH2 [Compound 96, [Glu9,Leu14,Phe25,Tyr13]Exendin-4(1-27)-[Leu2]Gastrin4]”: the results for the pEC50 in assay [1] and in assay [2] (Table 2) were 8.92 and 6.68, respectively.
Regarding `CCCCCCCCCCCCCCCC(=O)N[C@@H](CCC(=O)NCCCC[C@H](NC(=O)[C@H](C)NC(=O)[C@H](C)NC(=O)[C@H](CCC(N)=O)NC(=O)CNC(=O)[C@H](CCC(=O)O)NC(=O)[C@H](CC(C)C)NC(=O)[C@H](Cc1ccc(O)cc1)NC(=O)[C@H](CO)NC(=O)[C@H](CO)NC(=O)[C@@H](NC(=O)[C@H](CC(=O)O)NC(=O)[C@H](CO)NC(=O)[C@@H](NC(=O)[C@H](Cc1ccccc1)NC(=O)[C@@H](NC(=O)CNC(=O)[C@H](CCC(=O)O)NC(=O)[C@H](C)NC(=O)[C@@H](N)Cc1c[nH]cn1)[C@@H](C)O)[C@@H](C)O)C(C)C)C(=O)N[C@@H](CCC(=O)O)C(=O)N[C@@H](Cc1ccccc1)C(=O)N[C@H](C(=O)N[C@@H](C)C(=O)N[C@@H](Cc1c[nH]c2ccccc12)C(=O)N[C@@H](CC(C)C)C(=O)N[C@H](C(=O)N[C@@H](CCCCN)C(=O)NCC(=O)N[C@@H](CCCNC(=N)N)C(=O)NCC(=O)NCCOCCOCC(=O)NCCOCCOCC(=O)N[C@@H](Cc1ccc(O)cc1)C(=O)NCC(=O)N[C@@H](Cc1c[nH]c2ccccc12)C(=O)N[C@@H](CC(C)C)C(=O)N[C@@H](CC(=O)O)C(=O)N[C@@H](Cc1ccccc1)C(N)=O)C(C)C)[C@@H](C)CC)C(=O)O` [Compound 109, [Lys(Hexadecanoyl-isoGlu)26]GLP-1(7-37)-Peg3-Peg3-[Leu4]Gastrin6], the pEC50 in assay [2] (Table 3) is 7.59.
As to `CCCCCCCCCCCCCCCC(=O)N[C@@H](CCC(=O)NCCCC[C@H](NC(=O)[C@H](C)NC(=O)[C@H](C)NC(=O)[C@H](CCC(N)=O)NC(=O)CNC(=O)[C@H](CCC(=O)O)NC(=O)[C@H](CC(C)C)NC(=O)[C@H](Cc1ccc(O)cc1)NC(=O)[C@H](CO)NC(=O)[C@H](CO)NC(=O)[C@@H](NC(=O)[C@H](CC(=O)O)NC(=O)[C@H](CO)NC(=O)[C@@H](NC(=O)[C@H](Cc1ccccc1)NC(=O)[C@@H](NC(=O)CNC(=O)[C@H](CCC(=O)O)NC(=O)[C@H](C)NC(=O)[C@@H](N)Cc1c[nH]cn1)[C@@H](C)O)[C@@H](C)O)C(C)C)C(=O)N[C@@H](CCC(=O)O)C(=O)N[C@@H](Cc1ccccc1)C(=O)N[C@H](C(=O)N[C@@H](C)C(=O)N[C@@H](Cc1c[nH]c2ccccc12)C(=O)N[C@@H](CC(C)C)C(=O)N[C@H](C(=O)N[C@@H](CCCNC(=N)N)C(=O)NCC(=O)N[C@@H](CCCNC(=N)N)C(=O)NCC(=O)NCCOCCOCC(=O)NCCOCCOCC(=O)N[C@@H](Cc1ccc(O)cc1)C(=O)NCC(=O)N[C@@H](Cc1c[nH]c2ccccc12)C(=O)N[C@@H](CC(C)C)C(=O)N[C@@H](CC(=O)O)C(=O)N[C@@H](Cc1ccccc1)C(N)=O)C(C)C)[C@@H](C)CC)C(=O)O` [Compound 107, [Arg34,Lys(Hexadecanoyl-isoGlu)26]GLP-1(7-37)-Peg3-Peg3-[Leu4]Gastrin6], in assay [2] (Table 3), the pEC50 is 7.54.
Consider `CC[C@H](C)[C@H](NC(=O)[C@H](Cc1ccccc1)NC(=O)[C@H](CC(C)C)NC(=O)[C@H](CCCNC(=N)N)NC(=O)[C@@H](NC(=O)[C@H](C)NC(=O)[C@H](CCC(=O)O)NC(=O)[C@H](CCC(=O)O)NC(=O)[C@H](CCC(=O)O)NC(=O)[C@H](CC(C)C)NC(=O)[C@H](Cc1ccc(O)cc1)NC(=O)[C@H](CCCCN)NC(=O)[C@H](CO)NC(=O)[C@H](CC(C)C)NC(=O)[C@H](CC(=O)O)NC(=O)[C@H](CO)NC(=O)[C@@H](NC(=O)[C@H](Cc1ccccc1)NC(=O)[C@@H](NC(=O)CNC(=O)[C@H](CCC(=O)O)NC(=O)CNC(=O)[C@@H](N)Cc1c[nH]cn1)[C@@H](C)O)[C@@H](C)O)C(C)C)C(=O)N[C@@H](CCC(=O)O)C(=O)N[C@@H](Cc1ccccc1)C(=O)N[C@@H](CC(C)C)C(=O)N[C@@H](CCCCN)C(=O)NCCOCCOCC(=O)NCCOCCOCC(=O)N[C@@H](Cc1ccc(O)cc1)C(=O)NCC(=O)N[C@@H](Cc1ccccc1)C(=O)N[C@@H](CC(C)C)C(=O)N[C@@H](CC(=O)O)C(=O)N[C@@H](Cc1ccccc1)C(N)=O` [Compound 89, [Leu14, Phe25,Tyr13]Exendin-4(1-27)-Peg3-Peg3-[Leu4, Phe3]Gastrin6] (H-HGEGTFTSDLSKYLEEEAVRLFIEFLK[AEEA][AEEA]YGFLDF-NH2), for which the pEC50 in assay [2] (Table 2) was 5.92.
`CC[C@H](C)[C@H](NC(=O)[C@H](Cc1ccccc1)NC(=O)[C@H](CCC(=O)O)NC(=O)[C@H](CCCCN)NC(=O)[C@H](C)NC(=O)[C@H](C)NC(=O)[C@H](CCC(N)=O)NC(=O)CNC(=O)[C@H](CCC(=O)O)NC(=O)[C@H](CC(C)C)NC(=O)[C@H](Cc1ccc(O)cc1)NC(=O)[C@H](CO)NC(=O)[C@H](CO)NC(=O)[C@@H](NC(=O)[C@H](CC(=O)O)NC(=O)[C@H](CO)NC(=O)[C@@H](NC(=O)[C@H](Cc1ccccc1)NC(=O)[C@@H](NC(=O)CNC(=O)[C@H](CCC(=O)O)NC(=O)[C@H](C)NC(=O)[C@@H](N)Cc1c[nH]cn1)[C@@H](C)O)[C@@H](C)O)C(C)C)C(=O)N[C@@H](C)C(=O)N[C@@H](Cc1c[nH]c2ccccc12)C(=O)N[C@@H](CC(C)C)C(=O)N[C@H](C(=O)N[C@@H](CCCNC(=N)N)C(=O)NCC(=O)N[C@@H](CCCNC(=N)N)C(=O)NCC(=O)NCCOCCOCC(=O)NCCOCCOCC(=O)N[C@@H](Cc1ccc(O)cc1)C(=O)NCC(=O)N[C@@H](Cc1c[nH]c2ccccc12)C(=O)N[C@@H](CC(C)C)C(=O)N[C@@H](CC(=O)O)C(=O)N[C@@H](Cc1ccccc1)C(N)=O)C(C)C` [Compound 113, [Arg34]GLP-1(7-37)-Peg3-Peg3-[Leu4]Gastrin6]: the pEC50 in assay [2] (Table 3) was 7.62.
On the same count and under the same terms, the result for `CCCCCCCCCCCCCCCC(=O)N[C@@H](CCC(=O)NCCCC[C@H](NC(=O)[C@@H](NC(=O)[C@H](CC(C)C)NC(=O)[C@H](Cc1c[nH]c2ccccc12)NC(=O)[C@H](C)NC(=O)[C@@H](NC(=O)[C@H](Cc1ccccc1)NC(=O)[C@H](CCC(=O)O)NC(=O)[C@H](CCCCN)NC(=O)[C@H](C)NC(=O)[C@H](C)NC(=O)[C@H](CCC(N)=O)NC(=O)CNC(=O)[C@H](CCC(=O)O)NC(=O)[C@H](CC(C)C)NC(=O)[C@H](Cc1ccc(O)cc1)NC(=O)[C@H](CO)NC(=O)[C@H](CO)NC(=O)[C@@H](NC(=O)[C@H](CC(=O)O)NC(=O)[C@H](CO)NC(=O)[C@@H](NC(=O)[C@H](Cc1ccccc1)NC(=O)[C@@H](NC(=O)CNC(=O)[C@H](CCC(=O)O)NC(=O)[C@H](C)NC(=O)[C@@H](N)Cc1c[nH]cn1)[C@@H](C)O)[C@@H](C)O)C(C)C)[C@@H](C)CC)C(C)C)C(=O)NCC(=O)N[C@@H](CCCNC(=N)N)C(=O)NCC(=O)NCCOCCOCC(=O)NCCOCCOCC(=O)N[C@@H](Cc1ccc(O)cc1)C(=O)NCC(=O)N[C@@H](Cc1c[nH]c2ccccc12)C(=O)N[C@@H](CC(C)C)C(=O)N[C@@H](CC(=O)O)C(=O)N[C@@H](Cc1ccccc1)C(N)=O)C(=O)O` [Compound 106, [Lys(Hexadecanoyl-isoGlu)34]GLP-1(7-37)-Peg3-Peg3-[Leu4]Gastrin6] reads 7.74.
